Results: patent US4288609A, “Quaternary ammonium derivatives of adamantane with antimicrobic activity” (priority 1976, dated 1981)
Like-named read-outs stand apart in the source and are kept apart here.

Key:
Diplococcus Pneum. ISM = assay: M.I.C. in vitro, gram+ Diplococcus Pneum. (Table 1); format: cell-based; settings: read-out: M.I.C.
Method: (§1) The method for evaluating the activity in vitro against bacteria, fungi and protozoa consists in introducing calculated quantities of the substance, the activity of which it is desired to test, into culture media already inoculated with a predetermined number of test germs.
(§2) After 24 or 48 hours of incubation at 30° or 37° C., according to the micro-organism being tested, it is possible to evaluate the growth of the same in the culture broth; in this manner the minimum concentration (M.I.C.) which inhibits the growth of the micro-organisms in vitro is determined.
(§3) In table 1 there are recorded the M.I.C. values in γ/ml of the products subject of the present invention, against certain gram+ and gram- bacterial strains, some of which are pathogenic towards human beings.

Esch. Coli. SKF 12140 = assay: M.I.C. in vitro, gram- Esch. Coli (Table 1); format: cell-based, Escherichia Coli; settings: Escherichia coli, read-out: M.I.C.
Method: as §1, §2, §3

Klens. Pneum. ISM = assay: M.I.C. in vitro, gram- Klens. Pneum. (Table 1); format: cell-based; settings: for MIC: read-out: M.I.C.
Method: as §1, §2, §3

Proteus Vulc. ATCC 881 = assay: M.I.C. in vitro, gram- Proteus Vulc. (Table 1); format: cell-based; settings: read-out: M.I.C.
Method: as §1, §2, §3

Pseudom.Aer. ATCC 1014 = assay: M.I.C. in vitro, gram- Pseudom. Aer. (Table 1); format: cell-based, Pseudomonas Aeruginosa; settings: for MIC: Pseudomonas aeruginosa, read-out: M.I.C.
Method: as §1, §2, §3

[1] = tested on: Nicrosporum Canis ATCC 11621; assay: MIC mildews, Microsporum canis (Table 2); format: cell-based; settings: Sabourand broth
Method: as §1, §2
Inoculation with Trichophyton mentagrophytes and Microsporum canis was effected in a ratio of 1% of the volume of medium used.
(§4) For the fungi Sabourand broth was used as a culture medium, whilst for the protozoa Kupferberg Trichomonas broth with 5% of horse serum was used.

Candida Albic. SKF 2270 = assay: MIC yeasts, Candida albicans (Table 2); format: cell-based; settings: for MIC: Sabourand broth; for activity on Candida albicans, times greater than that of cetyl pyridine chloride: in the absence of serum; for activity on Candida albicans, times higher than that of cetyl pyridine chloride: in the presence of 10% of horse serum
Method: as §1, §2
Inoculation with Candida albicans or Candida pseudotropicalis was made by diluting cultures grown for 24 h at 30° C. (cellular density inoculated 10^3 /ml).
as §4

Trich. Foetus ISM 66/23 = assay: MIC protozoa, Trichomonas foetus (Table 2); format: cell-based; settings: +10% serum (head), Kupferberg Trichomonas broth with 5% of horse serum
Method: as §1, §2
Inoculation with Trichomonas vaginalis and Trichomonas foetus, obtained from cultures transplanted every other day to make them lively, was effected in a ratio of 3.5% of the volume of medium used.
as §4

[2] = tested on: Staphylococcus Aureus Tour; assay: Speed of sterilising action, Staphylococcus Aureus (Table 3); format: cell-based
Method: (§5) The strains, inoculants, culture broths and experimental methods are as already seen for calculating the M.I.C. in vitro. The antimicrobic substances were tested at concentrations of 0.1, 0.25, 0.5 and 1 g/l, the contact times taken into consideration are 0, 1, 2.5, 5, 7.5, 10, 15, 30 and 60 minutes.
(§6) The samples which at the 7th day of incubation still had no growth of micro-organisms which could be observed macroscopically and/or microscopically were considered sterile.
(§7) The results are recorded in Table 3 in terms of sterilization time expressed in minutes.

[3] = tested on: Escherichia Coli SKF 12140; assay: Speed of sterilising action, Escherichia Coli (Table 3); format: cell-based
Method: as §5, §6, §7

[4] = tested on: Trichophyton Mentagrophytes Ist. Pasteur; assay: Speed of sterilising action, Trichophyton Mentagrophytes (Table 3); format: cell-based
Method: as §5, §6, §7

[5] = tested on: Candida Albicans SKF 2270; assay: Speed of sterilising action, Candida Albicans (Table 3); format: cell-based
Method: as §5, §6, §7

[6] = tested on: Trichomonas Vaginalis ISM 66/22; assay: Speed of sterilising action, Trichomonas Vaginalis (Table 3); format: cell-based
Method: as §5, §6, §7

[7] = Acute oral toxicity in mice (Table 4); settings: mouse, in vivo, po, LD50, oral, mice, 14 days
Method: The substances were administered orally to groups of 10 female mice CF1 of average weight of about 20 grams, in aqueous solution and in such way that the total volume administered would be in each case 1 ml/100 g of weight.

[8] = Microsporum canis, ATCC11621, +10% serum, read-out: MIC
[9] = Microsporum canis, ATCC11621, without serum, read-out: MIC
[10] = Candida, +10% serum, read-out: MIC
[11] = Candida, without serum, read-out: MIC
[12] = Tritrichomonas foetus, read-out: MIC

For CCCCCCCCCC[N+](C)(C)CCOC(=O)C12CC3CC(CC(C3)C1)C2 (single isomer, unassigned) [Example 1, n-Decyl-dimethyl-(1-adamantane-carboxy)-ethyl-ammonium bromide], the MIC (Diplococcus Pneum. ISM; +10% serum) was 5 µg/mL, the MIC (Diplococcus Pneum. ISM; without serum) was 1 µg/mL and the MIC (Esch. Coli. SKF 12140; +10% serum) was 50 µg/mL. The MIC (Esch. Coli. SKF 12140; without serum) was 5 µg/mL, the MIC (Klens. Pneum. ISM; +10% serum) was 50 µg/mL and the M.I.C. (Klens. Pneum. ISM; without serum) was 5 µg/mL. For the same compound, the MIC (Proteus Vulc. ATCC 881; +10% serum) was 50 µg/mL, the MIC (Proteus Vulc. ATCC 881; without serum) was 10 µg/mL and the MIC (Pseudom.Aer. ATCC 1014; ATCC1014, +10% serum) was 50 µg/mL. The M.I.C. (Pseudom.Aer. ATCC 1014; without serum) was 20 µg/mL, the MIC [1, 8] was 10 µg/mL and the MIC ([1]; without serum) was 0.1 µg/mL. The MIC (Candida Albic. SKF 2270; +10% serum) was 10 µg/mL, the “activity on Candida albicans, times greater than that of cetyl pyridine chloride” value (Candida Albic. SKF 2270) was “about 25 times” and the “activity on Candida albicans, times higher than that of cetyl pyridine chloride” value (Candida Albic. SKF 2270) was 5-10 times. For the same compound, the MIC (Candida Albic. SKF 2270; without serum) was 0.2 µg/mL, the MIC (Trich. Foetus ISM 66/23) was 2 µg/mL and the sterilization time ([2]; 0.1 g/l) was 7.5 min. It also gave a sterilization time ([2]; 0.25 g/l) of 2.5 min, a sterilization time ([2]; 0.5 g/l) of 1 min and a sterilization time ([2]; 1 g/l) of 1 min. For the same compound, the sterilization time ([3]; 0.1 g/l) was 60 min, the sterilization time ([3]; 0.25 g/l) was 60 min and the sterilization time ([3]; 0.5 g/l) was 15 min. For the same compound, the sterilization time ([3]; 1 g/l) was 5 min, the sterilization time ([4]; 0.1 g/l) was 60 min and the sterilization time ([4]; 0.25 g/l) was 30 min. It also gave a sterilization time ([4]; 0.5 g/l) of 15 min, a sterilization time ([4]; 1 g/l) of 5 min and a sterilization time ([5]; 0.1 g/l) of 30 min. For the same compound, the sterilization time ([5]; 0.25 g/l) was 2.5 min, the sterilization time ([5]; 0.5 g/l) was 1 min and the sterilization time ([5]; 1 g/l) was 1 min. For the same compound, the sterilization time ([6]; 0.1 g/l) was 2.5 min, the sterilization time ([6]; 0.25 g/l) was 1 min and the sterilization time ([6]; 0.5 g/l) was 1 min. For the same compound, the sterilization time ([6]; 1 g/l) was 1 min and the LD50 at 336 h [7] was 910 mg/kg.

In the case of CCCCCCCCCCCC[N+](C)(C)CCOC(=O)C12CC3CC(CC(C3)C1)C2 [Example 4], the MIC (Diplococcus Pneum. ISM; +10% serum) is reported as 5 µg/mL, the MIC (Diplococcus Pneum. ISM; without serum) is reported as 0.5 µg/mL and the MIC (Esch. Coli. SKF 12140; +10% serum) is reported as 100 µg/mL. For the same compound, the MIC (Esch. Coli. SKF 12140; without serum) was 2 µg/mL, the MIC (Klens. Pneum. ISM; +10% serum) was 100 µg/mL and the MIC (Klens. Pneum. ISM; without serum) was 2 µg/mL. For the same compound, the MIC (Proteus Vulc. ATCC 881; +10% serum) was 100 µg/mL, the MIC (Proteus Vulc. ATCC 881; without serum) was 2 µg/mL and the MIC (Pseudom.Aer. ATCC 1014; ATCC1014, +10% serum) was 100 µg/mL. The MIC (Pseudom.Aer. ATCC 1014; ATCC1014, without serum) was 10 µg/mL, the MIC [1, 8] was 20 µg/mL and the MIC [1, 9] was 0.1 µg/mL. For the same compound, the MIC (Candida Albic. SKF 2270; [10]) was 20 µg/mL, the MIC (Candida Albic. SKF 2270; [11]) was 0.2 µg/mL and the “activity on Candida albicans, times greater than that of cetyl pyridine chloride” value (Candida Albic. SKF 2270) was “about 25 times”. The “activity on Candida albicans, times higher than that of cetyl pyridine chloride” value (Candida Albic. SKF 2270) was 5-10 times, the MIC (Trich. Foetus ISM 66/23; [12]) was 5 µg/mL and the sterilization time ([2]; 0.1 g/l) was 7.5 min. It also gave a sterilization time ([2]; 0.25 g/l) of 5 min, a sterilization time ([2]; 0.5 g/l) of 1 min and a sterilization time ([2]; 1 g/l) of 1 min. It also gave a sterilization time ([3]; 0.1 g/l) of 60 min, a sterilization time ([3]; 0.25 g/l) of 60 min and a sterilization time ([3]; 0.5 g/l) of 30 min. The sterilization time ([3]; 1 g/l) was 10 min, the sterilization time ([4]; 0.1 g/l) was 60 min and the sterilization time ([4]; 0.25 g/l) was 60 min. The sterilization time ([4]; 0.5 g/l) was 15 min, the sterilization time ([4]; 1 g/l) was 5 min and the sterilization time ([5]; 0.1 g/l) was 30 min. For the same compound, the sterilization time ([5]; 0.25 g/l) was 10 min, the sterilization time ([5]; 0.5 g/l) was 5 min and the sterilization time ([5]; 1 g/l) was 1 min. The sterilization time ([6]; 0.1 g/l) was 2.5 min, the sterilization time ([6]; 0.25 g/l) was 1 min and the sterilization time ([6]; 0.5 g/l) was 1 min. For the same compound, the sterilization time ([6]; 1 g/l) was 1 min and the LD50 at 336 h [7] was 820 mg/kg.

Compound CCCCCCCCCCCC[N+](C)(C)CCNC(=O)C12CC3CC(CC(C3)C1)C2 [Example 8] has an MIC (Diplococcus Pneum. ISM; +10% serum) of 5 µg/mL, an MIC (Diplococcus Pneum. ISM; without serum) of 1 µg/mL and an MIC (Esch. Coli. SKF 12140; +10% serum) of 100 µg/mL. The MIC (Esch. Coli. SKF 12140; without serum) was 2 µg/mL, the MIC (Klens. Pneum. ISM; +10% serum) was 50 µg/mL and the MIC (Klens. Pneum. ISM; without serum) was 5 µg/mL. For the same compound, the MIC (Proteus Vulc. ATCC 881; +10% serum) was 100 µg/mL, the MIC (Proteus Vulc. ATCC 881; without serum) was 5 µg/mL and the MIC (Pseudom.Aer. ATCC 1014; ATCC1014, +10% serum) was 50 µg/mL. It also gave an MIC (Pseudom.Aer. ATCC 1014; ATCC1014, without serum) of 10 µg/mL, an MIC [1, 8] of 20 µg/mL and an MIC [1, 9] of 0.1 µg/mL. For the same compound, the MIC (Candida Albic. SKF 2270; [10]) was 20 µg/mL, the MIC (Candida Albic. SKF 2270; [11]) was 0.2 µg/mL and the “activity on Candida albicans, times greater than that of cetyl pyridine chloride” value (Candida Albic. SKF 2270) was “about 25 times”. The “activity on Candida albicans, times higher than that of cetyl pyridine chloride” value (Candida Albic. SKF 2270) was 5-10 times, the MIC (Trich. Foetus ISM 66/23; [12]) was 1 µg/mL and the sterilization time ([3]; 0.1 g/l) was 60 min. The sterilization time ([3]; 0.25 g/l) was 60 min, the sterilization time ([3]; 0.5 g/l) was 10 min and the sterilization time ([3]; 1 g/l) was 7.5 min. The sterilization time ([4]; 0.1 g/l) was 60 min, the sterilization time ([4]; 0.25 g/l) was 60 min and the sterilization time ([4]; 0.5 g/l) was 10 min. For the same compound, the sterilization time ([4]; 1 g/l) was 5 min, the sterilization time ([5]; 0.1 g/l) was 60 min and the sterilization time ([5]; 0.25 g/l) was 15 min. It also gave a sterilization time ([5]; 0.5 g/l) of 2.5 min, a sterilization time ([5]; 1 g/l) of 2.5 min and an LD50 at 336 h [7] of 760 mg/kg.
